# Patent US9364480B2, “Pharmaceutical composition for preventing or treating cancer, containing enoblock as active ingredient” (GWANGJU INSTITUTE OF SCIENCE AND TECHNOLOGY, priority 2012, dated 2016)
# Assays:
# zebrafish larvae = assay: Measurement of glucose uptake in zebrafish (2-NBDG); type: in vivo; settings: 10 μg/mL
# Procedure: FIG. 12. […] (a) Schematic of our approach to measure the effect of ENOblock treatment on […] in zebrafish.
# At 72 hpf, larvae were placed into a 96-well plate (6 eggs/well in 200 μL E3 water supplemented with 0.2 mM 2-phenylthiourea; Sigma). Drug of interest was added for […]. The solution was then replaced with E3 water supplemented with 600 μM 2-NBDG and incubated for 3 h. The larva were washed with E3 water and anesthetized with 0.02% tricaine-supplemented E3 water. One larva was then placed on a chamber slide, containing 3% methylcellulose in E3 water, for fluorescent microscopy (Leica DM2500 microscope equipped with a DFC425 C digital camera). Images were captured at 50× magnification. The remaining 5 larvae where lysed with 120 μL of CelLytic M solution (Sigma-Aldrich) and sonication (4° C., 10″/5″ pulse, 10 min). Lysed larvae were centrifuged at 10000 rpm for 10 min. 100 μL of the supernatant was transferred to a 96-well plate and fluorescence was measured with a fluorescent microplate reader (SpectraMAX Gemini XS, Molecular Devices; λex=466 nm […]).
# [1] = test system: PEPCK expression in HEK cells; assay: PEPCK expression in kidney cells; type: cell-based; settings: 1 μg/mL, 24 h
# Text: FIG. 10. […] Error=SD; *=P<0.05 compared to the no drug (DMSO-treated) group. […] Error=SD; *=P<0.05 for reduced PEPCK expression compared to the no drug (DMSO-treated) group.
# [2] = test system: pre-adipocytes undergoing adipogenesis; assay: Adipogenesis lipid accumulation (Oil Red O staining); type: cell-based; settings: without adipogenesis-inducing factors
# [3] = biological target: T1, Enolase purified from rabbit muscle (Oryctolagus cuniculus, UniProt P25704); assay: Enolase activity assay; type: biochemical; settings: purified enolase
# T1 construct: Enolase purified from rabbit muscle was purchased from Sigma-Aldrich; purchased Sigma-Aldrich; host or cells: rabbit muscle
# Procedure: FIG. 4. […] (a) Affinity chromatography study for ENOblock in HCT116 cancer cells. […] (b) Sequence identification for the enolase monomer subunit. […] Mascot scores above 100 were deemed to be significant. […] Twenty micrograms of cell lysate from YD-10B oral cancer cells or Huh7 hepatocytes were used as positive controls. […] As a positive control, ENOblock affinity matrix was incubated with 200 μg of HCT 116 cell lysate; 50 μg cell lysate from HCT116 cancer cells was used as a positive control for the enolase antibody.
# Enolase purified from rabbit muscle was purchased from Sigma-Aldrich. A single unit of enolase is defined as the amount of enzyme that produces 1 μmol of phosphoenol pyruvate from phospho-D-glycerate/min in standard assay.^52 Enolase activity assay was measured at 37° C. by incubating pure enolase (3-9 U) in a buffer containing 50 mM imidazole-HCl (pH 6.8)(JUNSEI), 2.0 mM MgSO4 (JUNSEI) and 400 mM KCl (JUNSEI) in the absence or presence of ENOblock or NaF (Sigma). The reaction was initiated by adding 1 μmol of 2-phospho-D-glycerate, and the OD was measured after 10 min of reaction time with a spectrophometer at 240 nm.
# [4] = biological target: recombinant enolase from Schistosoma mansoni (Schistosoma mansoni, UniProt Q27877); settings: cited from earlier work
# purified enolase = purified enolase (Schistosoma mansoni, UniProt Q27877); settings: cited from earlier work
# purified enolase, sequence (Q27877 whole entry): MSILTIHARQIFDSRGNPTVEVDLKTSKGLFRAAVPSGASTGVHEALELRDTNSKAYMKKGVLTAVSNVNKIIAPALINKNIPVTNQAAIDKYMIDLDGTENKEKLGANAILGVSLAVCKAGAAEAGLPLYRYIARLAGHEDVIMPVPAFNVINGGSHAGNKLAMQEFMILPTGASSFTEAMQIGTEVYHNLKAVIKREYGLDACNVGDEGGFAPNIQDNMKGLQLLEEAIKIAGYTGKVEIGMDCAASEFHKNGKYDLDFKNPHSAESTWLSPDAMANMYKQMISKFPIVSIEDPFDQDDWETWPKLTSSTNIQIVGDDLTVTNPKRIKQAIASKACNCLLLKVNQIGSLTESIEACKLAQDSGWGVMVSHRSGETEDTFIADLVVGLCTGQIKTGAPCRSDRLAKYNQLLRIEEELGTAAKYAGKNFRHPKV
# recombinant enolase from Schistosoma mansoni, sequence (Q27877 whole entry): as above
# T1 sequence (P25704 whole entry): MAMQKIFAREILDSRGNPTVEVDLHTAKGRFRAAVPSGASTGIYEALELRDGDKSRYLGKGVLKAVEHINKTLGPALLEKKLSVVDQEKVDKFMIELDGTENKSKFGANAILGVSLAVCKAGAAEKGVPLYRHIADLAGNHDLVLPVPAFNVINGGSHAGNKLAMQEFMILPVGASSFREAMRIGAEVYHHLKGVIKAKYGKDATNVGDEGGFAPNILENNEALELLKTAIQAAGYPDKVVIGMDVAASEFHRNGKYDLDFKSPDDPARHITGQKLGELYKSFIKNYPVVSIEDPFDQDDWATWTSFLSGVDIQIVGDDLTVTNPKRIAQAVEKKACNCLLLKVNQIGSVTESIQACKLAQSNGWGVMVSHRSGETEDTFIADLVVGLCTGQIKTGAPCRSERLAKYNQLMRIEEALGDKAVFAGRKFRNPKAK
compound,measurement,setting,value
"Cc1cc(O)c2c(c1)C(=O)c1cc(O)cc(O)c1C2=O [emodin, 6-methyl-1,3,8-trihydroxyanthraquinone, reference compound]",glucose uptake in larvae (2-NBDG fluorescence microscopy),zebrafish larvae,enhanced glucose uptake in a similar but more intense pattern compared to the zebrafish treated with ENOblock
same,2-NBDG fluorescence signal intensity in the eye,"zebrafish larvae; 72 hpf larvae, 4 h, vs 2-NBDG alone",induced significantly greater fluorescent tagged glucose uptake in the zebrafish eye
insulin: insulin,PEPCK expression,[1],did not reduce PEPCK expression
same,"lipid accumulation in preadipocytes (Oil Red O, microscopy)",[2],still induced lipid accumulation
"[F-].[Na+] [NaF, sodium fluoride, reference compound]",treatment concentration giving enolase activity level approximated by 2.5 μM ENOblock,[3],1 mM
OC(c1cc(C(F)(F)F)nc2c(C(F)(F)F)cccc12)C1CCCCN1 (stereo not shown) [mefloquine],direct binding to recombinant enolase,[4],could not directly bind to recombinant enolase from this parasite
same,inhibition of purified enolase activity,purified enolase,could not inhibit purified enolase activity
